In US9359383B2, “β-ketoimine ligand, method of preparing the same, metal complex comprising the same and method of forming thin film using the same” (SAMSUNG ELECTRONICS CO., LTD., priority 2011, dated 2016):

Legend:
[1] = Purification by distillation under reduced pressure (thermal stability); format: physicochemical; conditions: distillation at 30-50 Pa and 200-220° C.
Procedure: Strontium complex compounds of Comparative Examples 1 to 8 were prepared using the β-ketoimine ligands, obtained in Synthesis Examples 4 to 11, in the same manner as Example 1. Purification of the strontium complex compounds of Comparative Examples 3, 4, 5, 6 and 8, which could be distilled, was carried out at a pressure of 30-50 Pa and a temperature of 200˜220° C. […] The strontium complex compounds of Comparative Examples 1 to 8 were analyzed in the same manner as Examples 1 to 3, thereby determining the chemical structures thereof.

[2] = Evaluation of solubility in organic solvent (Test Example 2); format: physicochemical; conditions: 0.1-0.7 mol added to 1000 ml solvent, sealed, stood 24 hours, visual observation
Procedure: For the strontium complex compounds of Examples 1 to 3 and Comparative Examples 2 to 8, the solubilities of the complex compounds in ethyl cyclohexane, diethyl glycol dimethyl ether and toluene were evaluated. The evaluation was performed by adding 0.1-0.7 mol of each of the strontium complex compounds to 1000 ml of each of the organic solvents, sealing the mixtures, allowing the mixtures to stand for 24 hours, and visually observing whether a solid occurred in the mixtures. […] In Table 3, the case in which the complex compound was dissolved at a concentration of less than 0.1 mol was indicated as “x”.

[3] = Thermal stability by DSC (Test Example 3); format: physicochemical; conditions: closed metal container, dry argon, heating rate 10° C./min, sample 1-4 mg
Procedure: (§1) The strontium complex compounds of Examples 1 to 3 and Comparative Examples 5 to 8 were measured for thermal stability by TGA and DSC. The TGA measurement was carried out under the following conditions: dry argon flow rate: 100 ml/min; heating rate: 10° C./min; and a sample amount of 7-12 mg. The DSC measurement was carried out by injecting a sample into a closed metal container in a glove box in a dry argon atmosphere and heating the sample container at a rate of 10° C./min, in which the amount of the sample was 1-4 mg. In the TGA measurement, sampling and measurement were carried out in the glove box in the dry argon atmosphere.

[4] = Thermal stability by TGA (Test Example 3); format: physicochemical; conditions: dry argon 100 ml/min, heating rate 10° C./min, sample 7-12 mg
Procedure: as §1

| thermal stability (could not be purified by distillation) [1] | concentration of the strontium complex compound in the transparent liquid in which no solid was present, Diethylene glycol dimethyl ether [2] | concentration of the strontium complex compound in the transparent liquid in which no solid was present, Toluene [2] | Decomposition peak top temperature (° C.) [3] | Remaining amount (wt % at 400 ° C.) [4] | Compound | concentration of the strontium complex compound in the transparent liquid in which no solid was present, Ethyl cyclohexane [2] | melting point |
| --- | --- | --- | --- | --- | --- | --- | --- |
| low thermal stability | – | – | – | – | COCC[N+]1=C(C)C=C(C(C)(C)C)[O][Sr-2]12[O]C(C(C)(C)C)=CC(C)=[N+]2CCOC [Comparative Example 1] | – | – |
| low thermal stability | 0.3 mol | 0.3 mol | – | – | CC1=[N+](CCN(C)C)[Sr-2]2([O]C(C(C)(C)C)=C1)[O]C(C(C)(C)C)=CC(C)=[N+]2CCN(C)C [Comparative Example 2] | X (the case in which the complex compound was dissolved at a concentration of less than 0.1 mol was indicated as “x”) | – |
| – | 0.4 mol | 0.1 mol | 336.8 °C | 26.2 wt % | COCCCC1=[N+](CCCN(C)C)[Sr-2]2([O]C(C(C)(C)C)=C1)[O]C(C(C)(C)C)=CC(CCCOC)=[N+]2CCCN(C)C [Comparative Example 5] | X (the case in which the complex compound was dissolved at a concentration of less than 0.1 mol was indicated as “x”) | – |
| low thermal stability | 0.2 mol | 0.3 mol | 337.5 °C | 10.2 wt % | COCC(C)(C)C1=CC(C(C)C)=[N+](CCN(C)C)[Sr-2]2([O]1)[O]C(C(C)(C)COC)=CC(C(C)C)=[N+]2CCN(C)C [Comparative Example 7] | 0.3 mol | – |
| – | 0.7 mol | 0.7 mol | 393.2 °C | 0.87 wt % | CCC(C)C(=CC(=O)C(C)(C)COC)[N]([Sr][N](C(=CC(=O)C(C)(C)COC)C(C)CC)C(C)CN(C)C)C(C)CN(C)C (stereo not drawn) [Example 3] | 0.7 mol | – |
| – | 0.4 mol | 0.7 mol | – | – | CC(C)C1=[N+](C(C)CN(C)C)[Sr-2]2([O]C(C(C)(C)C)=C1)[O]C(C(C)(C)C)=CC(C(C)C)=[N+]2C(C)CN(C)C (stereo not drawn) [Comparative Example 4] | 0.3 mol | – |
| – | 0.4 mol | 0.4 mol | 363.0 °C | 3.7 wt % | COCC(C)[N+]1=C(C(C)C)C=C(C(C)(C)COC)[O][Sr-2]12[O]C(C(C)(C)COC)=CC(C(C)C)=[N+]2C(C)COC (stereo not drawn) [Comparative Example 6] | 0.5 mol | – |

| Compound | thermal stability (could not be purified by distillation) [1] | concentration of the strontium complex compound in the transparent liquid in which no solid was present, Diethylene glycol dimethyl ether [2] | concentration of the strontium complex compound in the transparent liquid in which no solid was present, Toluene [2] | Decomposition peak top temperature (° C.) [3] | Remaining amount (wt % at 400 ° C.) [4] | concentration of the strontium complex compound in the transparent liquid in which no solid was present, Ethyl cyclohexane [2] | melting point |
| --- | --- | --- | --- | --- | --- | --- | --- |
| COCC(C)(C)C1=[O+][Sr-4]234([O+]=C(C(C)(C)COC)C=C(C(C)C)[N]2C(C)C[N+]3(C)C)[N](C(C(C)C)=C1)C(C)C[N+]4(C)C (stereo not drawn) [Example 1] | – | 0.7 mol | 0.7 mol | 382.4 °C | 0.61 wt % | 0.7 mol | 140 to 141 °C |
| COCCC(C)(C)C1=CC(C(C)C)=[N+](C(C)CN(C)C)[Sr-2]2([O]1)[O]C(C(C)(C)CCOC)=CC(C(C)C)=[N+]2C(C)CN(C)C (stereo not drawn) [Comparative Example 8] | – | X (the case in which the complex compound was dissolved at a concentration of less than 0.1 mol was indicated as “x”) | 0.1 mol | 368.2 °C | 3.97 wt % | X (the case in which the complex compound was dissolved at a concentration of less than 0.1 mol was indicated as “x”) | – |
| CCOCC(C)(C)C(=O)C=C(C(C)C)[N]([Sr][N](C(=CC(=O)C(C)(C)COCC)C(C)C)C(C)CN(C)C)C(C)CN(C)C (stereo not drawn) [Example 2] | – | 0.7 mol | 0.7 mol | 360.7 °C | 1.40 wt % | 0.6 mol | – |
